Experimental data published in ChEMBL document CHEMBL1201862, “PubChem BioAssay data set” (2004).
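Values below derive from 48-hour exposures of cells grown in 96-well plates, with endpoints linearly interpolated between the two concentrations bracketing the appropriate inhibition level. At the GI50, growth is halved.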 Active and inactive are the calls of the source. Rule as the data show it: active = GI50 up to about 1.1 µM and inactive = higher.

Legend:
Test in all cases: DTP human tumour cell line panel, 48 h
786-0 = system: 786-0
CAKI-1 = system: CAKI-1
HCC 2998 = system: HCC 2998
HCT-116 = system: HCT-116
HOP-92 = system: HOP-92
KM12 = system: KM12
LOX IMVI = system: LOX IMVI
MOLT-4 = system: MOLT-4
Malme-3M = system: Malme-3M
SF-268 = system: SF-268
SF-539 = system: SF-539
U-251 = system: U-251
UACC-62 = system: UACC-62
SK-MEL-2 = system: SK-MEL-2

Structure (SMILES)	GI50 (786-0)	GI50 (CAKI-1)	GI50 (HCC 2998)	GI50 (HCT-116)	GI50 (HOP-92)	GI50 (KM12)	GI50 (LOX IMVI)	GI50 (MOLT-4)	GI50 (Malme-3M)	GI50 (SF-268)	GI50 (SF-539)	GI50 (U-251)	GI50 (UACC-62)	GI50 (SK-MEL-2)
NC(CCSCC(F)F)C(=O)O (configuration not stated)	> 100 µM (inactive)	> 100 µM (inactive)	> 100 µM (inactive)	> 100 µM (inactive)	> 100 µM (inactive)	> 100 µM (inactive)	> 100 µM (inactive)	> 100 µM (inactive)	> 100 µM (inactive)	> 100 µM (inactive)	> 100 µM (inactive)	> 100 µM (inactive)	> 100 µM (inactive)	
COc1ccc(O)c2c(=O)ccccc12	> 100 µM (inactive)		> 100 µM (inactive)	> 100 µM (inactive)	> 100 µM (inactive)	> 100 µM (inactive)	> 100 µM (inactive)	> 100 µM (inactive)	> 100 µM (inactive)	> 100 µM (inactive)	> 100 µM (inactive)	> 100 µM (inactive)	92.3 µM (inactive)	> 100 µM (inactive)
O=C1CCNC/C1=C\c1ccccc1	15.6 µM (inactive)	44.8 µM (inactive)	20.1 µM (inactive)	17.9 µM (inactive)		14.8 µM (inactive)	16.8 µM (inactive)	24.7 µM (inactive)		19.6 µM (inactive)	17.4 µM (inactive)	20.5 µM (inactive)	17.1 µM (inactive)	54 µM (inactive)
CC1CCCc2c1c1ccc3c(O)cccc3c1oc2=O (configuration not stated)	19.5 µM (inactive)	39.4 µM (inactive)	> 100 µM (inactive)	91.8 µM (inactive)		> 100 µM (inactive)	95.5 µM (inactive)	> 100 µM (inactive)	> 100 µM (inactive)	17.3 µM (inactive)		33.8 µM (inactive)	35.1 µM (inactive)	28.9 µM (inactive)
COc1cc([C@@H]2c3cc4c(cc3[C@@H](NC(=O)c3cccc(F)c3)C3COC(=O)[C@@H]32)OCO4)cc(OC)c1O (some centres not stated)	0.441 µM (active)	0.646 µM (active)	2.66 µM (inactive)	1.76 µM (inactive)	2.74 µM (inactive)	1.76 µM (inactive)	0.698 µM (active)	< 0.01 µM (active)	1.29 µM (inactive)	1.61 µM (inactive)	0.356 µM (active)	0.109 µM (active)	0.385 µM (active)	4.46 µM (inactive)
COC(=O)C1(O)c2ccccc2N=C2C1CCN2C (configuration not stated)	> 100 µM (inactive)	> 100 µM (inactive)	> 100 µM (inactive)	> 100 µM (inactive)	> 100 µM (inactive)	> 100 µM (inactive)	> 100 µM (inactive)	> 100 µM (inactive)	> 100 µM (inactive)	> 100 µM (inactive)	> 100 µM (inactive)	> 100 µM (inactive)	> 100 µM (inactive)	> 100 µM (inactive)
CC1=CP(=O)(c2ccccc2)C=C(C)C1=C(Cl)Cl (configuration not stated)	4.1 µM (inactive)		15 µM (inactive)	3.2 µM (inactive)		3.37 µM (inactive)	4.05 µM (inactive)	3.91 µM (inactive)		3.98 µM (inactive)	5.24 µM (inactive)	6.71 µM (inactive)	6.43 µM (inactive)	
COc1cc2c(cc1OC)-c1c(cc(OC)c(OC)c1OC)C2=O	> 100 µM (inactive)		> 100 µM (inactive)	> 100 µM (inactive)	> 100 µM (inactive)	> 100 µM (inactive)	> 100 µM (inactive)	> 100 µM (inactive)	> 100 µM (inactive)	> 100 µM (inactive)	> 100 µM (inactive)	> 100 µM (inactive)	> 100 µM (inactive)	
CCO/S(=N/S(=O)(=O)c1ccccc1)c1ccccc1[N+](=O)[O-] (configuration not stated)	> 100 µM (inactive)	> 100 µM (inactive)	> 100 µM (inactive)			> 100 µM (inactive)	> 100 µM (inactive)	> 100 µM (inactive)	> 100 µM (inactive)	> 100 µM (inactive)	> 100 µM (inactive)	> 100 µM (inactive)	> 100 µM (inactive)	> 100 µM (inactive)
Cc1cc(C(=O)N2CCN(Cc3ccccc3)CC2)c(C)o1	> 100 µM (inactive)	> 100 µM (inactive)	> 100 µM (inactive)	> 100 µM (inactive)	> 100 µM (inactive)	> 100 µM (inactive)	> 100 µM (inactive)	> 100 µM (inactive)		> 100 µM (inactive)	> 100 µM (inactive)	> 100 µM (inactive)	> 100 µM (inactive)	
COc1cc(O)c2c(c1)O[C@@H]1OCC[C@H]21	> 100 µM (inactive)		> 100 µM (inactive)	> 100 µM (inactive)	> 100 µM (inactive)	> 100 µM (inactive)	> 100 µM (inactive)	> 100 µM (inactive)	> 100 µM (inactive)		> 100 µM (inactive)	> 100 µM (inactive)	> 100 µM (inactive)	> 100 µM (inactive)
COC(=O)C1CSC(c2csc(CCN)n2)=N1 (configuration not stated)	> 100 µM (inactive)	> 100 µM (inactive)	> 100 µM (inactive)	> 100 µM (inactive)	> 100 µM (inactive)	> 100 µM (inactive)	> 100 µM (inactive)	> 100 µM (inactive)	> 100 µM (inactive)			> 100 µM (inactive)	> 100 µM (inactive)	> 100 µM (inactive)
CCOC(=O)NC(=O)c1cn(C2CCCCC2)c(=O)[nH]c1=O	24.7 µM (inactive)	> 100 µM (inactive)	53.6 µM (inactive)	5.11 µM (inactive)	> 100 µM (inactive)	78.2 µM (inactive)	9.75 µM (inactive)	41.8 µM (inactive)	> 100 µM (inactive)	> 100 µM (inactive)	39.7 µM (inactive)	56.8 µM (inactive)	40 µM (inactive)	> 100 µM (inactive)
N#CCc1nc2c(s1)C(=O)c1ccccc1C2=O	16.4 µM (inactive)	22.2 µM (inactive)	19.9 µM (inactive)	14.3 µM (inactive)	18.5 µM (inactive)	18.5 µM (inactive)	13.5 µM (inactive)	1.22 µM (inactive)	19.9 µM (inactive)	15.9 µM (inactive)	14.8 µM (inactive)	17.3 µM (inactive)	13.1 µM (inactive)	17.3 µM (inactive)
NC(=S)NNc1c([N+](=O)[O-])cnn(-c2ccccc2)c1=O	20.3 µM (inactive)	19.6 µM (inactive)	18.7 µM (inactive)	10.2 µM (inactive)	19.9 µM (inactive)	14.7 µM (inactive)	10.3 µM (inactive)	12.6 µM (inactive)	19.2 µM (inactive)	21.1 µM (inactive)	18.8 µM (inactive)	16.9 µM (inactive)	12.1 µM (inactive)	
COc1cc2c[n+]3ccc4cc(OC)c(OC)cc4c3cc2cc1O	> 100 µM (inactive)		> 100 µM (inactive)	> 100 µM (inactive)	> 100 µM (inactive)	> 100 µM (inactive)	> 100 µM (inactive)	> 100 µM (inactive)	> 100 µM (inactive)	> 100 µM (inactive)	> 100 µM (inactive)	> 100 µM (inactive)	> 100 µM (inactive)	> 100 µM (inactive)
CCOC(=O)NC(=O)c1cn(CCCOC(=O)NCCCCCCNC(=O)OCCCn2c(=O)c(C(=O)NC(=O)OCC)cn(C)c2=O)c(=O)n(C)c1=O	> 100 µM (inactive)	> 100 µM (inactive)	> 100 µM (inactive)	> 100 µM (inactive)	> 100 µM (inactive)	> 100 µM (inactive)	> 100 µM (inactive)	> 100 µM (inactive)	> 100 µM (inactive)	> 100 µM (inactive)		61.2 µM (inactive)	> 100 µM (inactive)	> 100 µM (inactive)
c1c[nH]c(Cc2nc(Cc3c[nH]cn3)c[nH]2)n1	11.7 µM (inactive)	27.9 µM (inactive)	2.74 µM (inactive)	29.5 µM (inactive)	22 µM (inactive)	7.64 µM (inactive)	16.5 µM (inactive)	3.48 µM (inactive)	5.07 µM (inactive)	4.65 µM (inactive)	27.2 µM (inactive)	34 µM (inactive)	19.8 µM (inactive)	13.7 µM (inactive)
Nc1ncnc2c1ncn2C1(CO)OC(CO)C(O)C1O (configuration not stated)	> 100 µM (inactive)	> 100 µM (inactive)	> 100 µM (inactive)	> 100 µM (inactive)	> 100 µM (inactive)	> 100 µM (inactive)	> 100 µM (inactive)	> 100 µM (inactive)	> 100 µM (inactive)	> 100 µM (inactive)		> 100 µM (inactive)		> 100 µM (inactive)
CC1(C)COC(C2(C)C(=O)C=C(c3ccccc3)c3ccccc32)=N1 (configuration not stated)	59.8 µM (inactive)	42.6 µM (inactive)		44.1 µM (inactive)	21.8 µM (inactive)	47.3 µM (inactive)		25.8 µM (inactive)	11.5 µM (inactive)	58.2 µM (inactive)	43.6 µM (inactive)	59.4 µM (inactive)	54.3 µM (inactive)	37.3 µM (inactive)
CC(C)(C)C1CCP(=O)(c2ccccc2)CC1 (configuration not stated)	> 100 µM (inactive)		> 100 µM (inactive)	> 100 µM (inactive)		> 100 µM (inactive)	> 100 µM (inactive)	> 100 µM (inactive)	> 100 µM (inactive)		> 100 µM (inactive)	> 100 µM (inactive)	> 100 µM (inactive)	> 100 µM (inactive)
Clc1cc2nc[nH]c2cc1Cl	> 100 µM (inactive)	> 100 µM (inactive)	> 100 µM (inactive)		56 µM (inactive)	71.8 µM (inactive)	> 100 µM (inactive)	> 100 µM (inactive)	> 100 µM (inactive)	> 100 µM (inactive)	> 100 µM (inactive)	> 100 µM (inactive)	76 µM (inactive)	> 100 µM (inactive)
